Data as given in patent US20090227575A1, “7H-PYRROLO[2,3-H]QUINAZOLINE COMPOUNDS, THEIR USE AS mTOR KINASE AND PI3 KINASE INHIBITORS, AND THEIR [sequence]” (Wyeth, priority 2008, published 2009).
Like-named read-outs stand apart in the source and are kept apart here. One block for each compound: values may come before it.

Columns and labels:
[1] = tested on: acute lymphoblastic leukemia xenograft; settings: NOS/SCID xenograft mouse model of acute lymphoblastic leukemia; cited from earlier work
[2] = target: hSMG-1 (Homo sapiens, UniProt Q96Q15); settings: read-out: hSMG-1 kinase activity IC50; cited from earlier work
[3] = tested on: human tumor xenograft models; settings: cited from earlier work
[4] = target: human SMG-1 (hSMG-1) (Homo sapiens, UniProt Q96Q15); assay: hSMG-1 kinase assay (DELFIA); type: biochemical; settings: read-out: hSMG1 IC50
[5] = tested on: human prostate LNCap tumor cell line; assay: In vitro cell culture growth assay (MTS), LNCap; type: cell-based; settings: 72 h, three days after drug treatment
Protocol: (§1) Cell Lines used are human prostate LNCap and human breast MDA468 tumor cell lines. Cells are plated in 96-well culture plates at approximately 3000 cells per well. […] Three days after drug treatment, viable cell densities are determined by cell mediated metabolic conversion of the dye MTS, a well-established indicator of cell proliferation in vitro. Cell growth assays are performed using kits purchased from Promega Corporation (Madison, Wis.), following the protocol provided by the vendor. Measuring absorbance at 490 nm generates MTS assay results. Compound effect on cell proliferation is assessed relative to untreated control cell growth.

[6] = target: PI3K-gamma (Homo sapiens, UniProt P48736); assay: PI3K-gamma fluorescence polarization assay; type: biochemical; settings: read-out: PI3 Kinase γ IC50
Chain of PI3K-gamma (P48736 whole entry, species assumed): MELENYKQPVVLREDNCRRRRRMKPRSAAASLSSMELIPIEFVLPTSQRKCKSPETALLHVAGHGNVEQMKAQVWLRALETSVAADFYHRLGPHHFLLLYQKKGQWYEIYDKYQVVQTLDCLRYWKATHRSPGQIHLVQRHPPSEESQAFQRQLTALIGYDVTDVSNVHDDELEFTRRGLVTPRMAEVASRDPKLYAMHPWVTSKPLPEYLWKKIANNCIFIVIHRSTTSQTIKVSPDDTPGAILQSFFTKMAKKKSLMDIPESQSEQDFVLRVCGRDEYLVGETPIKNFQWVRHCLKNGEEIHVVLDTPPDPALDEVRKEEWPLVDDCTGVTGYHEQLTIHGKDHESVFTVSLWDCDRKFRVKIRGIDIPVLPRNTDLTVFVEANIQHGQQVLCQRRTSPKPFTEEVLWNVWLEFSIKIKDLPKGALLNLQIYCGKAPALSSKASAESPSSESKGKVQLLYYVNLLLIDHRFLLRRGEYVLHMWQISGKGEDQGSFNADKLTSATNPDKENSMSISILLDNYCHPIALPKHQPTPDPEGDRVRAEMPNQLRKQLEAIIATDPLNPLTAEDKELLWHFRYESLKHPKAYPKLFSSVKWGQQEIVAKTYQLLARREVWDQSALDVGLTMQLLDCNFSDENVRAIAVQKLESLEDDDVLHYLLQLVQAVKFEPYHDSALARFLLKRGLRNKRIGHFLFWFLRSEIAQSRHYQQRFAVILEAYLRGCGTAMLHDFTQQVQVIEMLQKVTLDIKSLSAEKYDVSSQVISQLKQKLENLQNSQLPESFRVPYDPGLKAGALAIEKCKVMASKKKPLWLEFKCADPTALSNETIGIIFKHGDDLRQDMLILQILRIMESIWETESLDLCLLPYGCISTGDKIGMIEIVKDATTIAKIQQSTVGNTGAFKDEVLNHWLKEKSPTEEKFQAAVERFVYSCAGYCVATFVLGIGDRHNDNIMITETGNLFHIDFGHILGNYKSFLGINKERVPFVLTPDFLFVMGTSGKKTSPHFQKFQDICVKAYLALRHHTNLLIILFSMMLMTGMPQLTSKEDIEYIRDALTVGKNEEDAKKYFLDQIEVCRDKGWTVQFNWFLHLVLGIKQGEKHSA
How it was run: (§2)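 Diluted enzyme and compound (1% DMSO) reacted with diC8 PIP2 and ATP substrate in 20 mM HEPES pH 7.5, 2 mM MgCl2, 0.05% CHAPS for 30–60 min. Stopped with EDTA buffer holding 10 nM TAMRA probe and 70 nM GST-GRP. FP (mP) read after 30–90 min against zero-time and no-enzyme controls.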

[7] = target: PI3K-alpha (Homo sapiens, UniProt P42336); assay: PI3K-alpha fluorescence polarization assay; type: biochemical; settings: read-out: PI3 Kinase α IC50
Chain of PI3K-alpha (P42336 whole entry, species assumed): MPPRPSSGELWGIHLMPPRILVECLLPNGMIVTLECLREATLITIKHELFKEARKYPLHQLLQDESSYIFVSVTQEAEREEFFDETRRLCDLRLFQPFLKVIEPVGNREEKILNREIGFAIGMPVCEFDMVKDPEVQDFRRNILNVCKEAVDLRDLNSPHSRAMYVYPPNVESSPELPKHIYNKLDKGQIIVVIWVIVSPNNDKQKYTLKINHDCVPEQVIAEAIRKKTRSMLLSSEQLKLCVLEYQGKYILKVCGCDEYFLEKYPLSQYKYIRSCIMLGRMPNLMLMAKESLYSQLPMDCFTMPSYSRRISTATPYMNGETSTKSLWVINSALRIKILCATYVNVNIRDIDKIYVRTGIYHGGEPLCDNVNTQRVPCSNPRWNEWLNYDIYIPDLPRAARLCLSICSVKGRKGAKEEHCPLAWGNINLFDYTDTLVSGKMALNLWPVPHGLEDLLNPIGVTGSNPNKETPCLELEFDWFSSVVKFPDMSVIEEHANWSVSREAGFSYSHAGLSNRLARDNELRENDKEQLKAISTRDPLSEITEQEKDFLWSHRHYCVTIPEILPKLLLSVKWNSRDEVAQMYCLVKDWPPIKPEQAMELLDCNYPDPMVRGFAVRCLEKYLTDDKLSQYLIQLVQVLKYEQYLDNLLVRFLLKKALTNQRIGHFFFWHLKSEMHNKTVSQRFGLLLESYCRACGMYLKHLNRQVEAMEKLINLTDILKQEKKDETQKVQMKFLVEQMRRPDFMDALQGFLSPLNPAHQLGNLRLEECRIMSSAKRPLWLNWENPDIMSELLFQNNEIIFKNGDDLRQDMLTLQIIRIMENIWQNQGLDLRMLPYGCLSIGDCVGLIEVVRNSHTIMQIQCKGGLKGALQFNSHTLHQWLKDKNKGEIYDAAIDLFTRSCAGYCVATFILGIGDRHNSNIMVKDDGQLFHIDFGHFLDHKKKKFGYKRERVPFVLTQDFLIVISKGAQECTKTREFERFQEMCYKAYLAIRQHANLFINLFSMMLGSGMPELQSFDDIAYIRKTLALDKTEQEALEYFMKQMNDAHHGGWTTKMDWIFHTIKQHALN
Chain of PI3K-alpha (P27986 whole entry partner, species assumed): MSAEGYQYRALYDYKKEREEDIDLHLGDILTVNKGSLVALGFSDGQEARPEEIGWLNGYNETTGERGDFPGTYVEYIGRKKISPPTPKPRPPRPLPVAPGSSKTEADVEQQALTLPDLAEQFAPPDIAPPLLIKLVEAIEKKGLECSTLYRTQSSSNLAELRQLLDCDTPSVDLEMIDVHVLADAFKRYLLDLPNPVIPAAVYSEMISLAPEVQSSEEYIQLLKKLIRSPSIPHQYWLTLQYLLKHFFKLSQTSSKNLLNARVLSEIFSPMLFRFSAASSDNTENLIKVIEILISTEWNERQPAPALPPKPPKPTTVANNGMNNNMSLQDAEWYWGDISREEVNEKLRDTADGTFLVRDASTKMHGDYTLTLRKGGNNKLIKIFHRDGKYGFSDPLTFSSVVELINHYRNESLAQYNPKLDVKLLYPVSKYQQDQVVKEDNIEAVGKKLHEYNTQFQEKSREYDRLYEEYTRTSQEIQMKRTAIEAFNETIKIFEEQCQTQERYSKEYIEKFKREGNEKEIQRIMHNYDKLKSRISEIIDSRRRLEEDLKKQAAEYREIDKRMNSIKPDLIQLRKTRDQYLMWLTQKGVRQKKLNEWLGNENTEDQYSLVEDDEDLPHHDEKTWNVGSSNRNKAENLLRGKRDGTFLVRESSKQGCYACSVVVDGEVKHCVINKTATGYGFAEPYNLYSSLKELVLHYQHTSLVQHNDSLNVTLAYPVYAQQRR
How it was run: as §2

[8] = tested on: human breast MDA468 tumor cell line; assay: In vitro cell culture growth assay (MTS), MDA468; type: cell-based; settings: 72 h, three days after drug treatment
Protocol: as §1

[9] = target: T1, Human mTOR (Homo sapiens, UniProt P42345); assay: mTOR kinase assay (DELFIA format, purified enzyme); type: biochemical; parameters: FLAG; settings: read-out: TOR Kinase IC50
[10] = target: T1, Human mTOR; settings: read-out: mTOR enzymes IC50; cited from earlier work

SMILES: CO[C@H]1C[C@@H]2CC[C@@H](C)[C@@](O)(O2)C(=O)C(=O)N2CCCC[C@H]2C(=O)O[C@H]([C@H](C)C[C@@H]2CC[C@@H](OC(=O)C(C)(CO)CO)[C@H](OC)C2)CC(=O)[C@H](C)/C=C(\C)[C@@H](O)[C@@H](OC)C(=O)[C@H](C)C[C@H](C)/C=C/C=C/C=C/1C [Torisel]
activity in xenograft mouse model [1]: active

SMILES: COC[C@H]1OC(=O)c2coc3c2[C@@]1(C)C1=C(C3=O)[C@@H]2CCC(=O)[C@@]2(C)C[C@H]1OC(C)=O [Wortmannin]
IC50 [2]: ~0.06 µM

SMILES: Oc1cccc(-c2nc(N3CCOCC3)c3oc4ncccc4c3n2)c1 [PI103, 3-(4-(4-morpholinyl)pyrido[3′,2′:4,5]furo[3,2-d]pyrimidin-2-yl)phenol]
activity against human tumor models ([3]; I.P. dosing in mice, U87MG, PC3, MDA-MB-468, MDA-MB-435, HCT 116, SKOV3, IGROV-1): demonstrated activity

SMILES: Cn1c(=O)c2c(ncn2C)n(C)c1=O [caffeine]
IC50 [2]: 300 µM

IC50 [4]: 0.16 µM
IC50 [5]: 0.048 µM
IC50 [6]: 0.142 µM
IC50 [7]: 0.022 µM
IC50 [8]: 0.07 µM
SMILES: CS(=O)(=O)n1ccc2c3nc(-c4ccc(NC(=O)Nc5cccnc5)cc4)nc(N4CCOCC4)c3ccc21 [Example 85, 1-{4-[7-(methylsulfonyl)-4-morpholin-4-yl-7H-pyrrolo[2,3-h]quinazolin-2-yl]phenyl}-3-pyridin-3-ylurea]

IC50 [4]: 0.043 µM
IC50 [5]: 0.88 µM
IC50 [9]: 0.002 µM
IC50 [6]: 1.91 µM
IC50 [7]: 0.095 µM
IC50 [8]: 1.7 µM
SMILES: CNC(=O)Nc1ccc(-c2nc(N3CCOCC3)c3ccc4c(ccn4S(C)(=O)=O)c3n2)cc1 [Example 110, 1-methyl-3-{4-[7-(methylsulfonyl)-4-morpholin-4-yl-7H-pyrrolo[2,3-h]quinazolin-2-yl]phenyl}urea]

SMILES: Cn1c(=O)n(-c2ccc(C(C)(C)C#N)cc2)c2c3cc(-c4cnc5ccccc5c4)ccc3ncc21 [NVP-BEZ-235, 2-methyl-2-(4-(3-methyl-2-oxo-8-(quinolin-3-yl)-2,3-dihydro-1H-imidazo[4,5-c]quinolin-1-yl)phenyl)propanenitrile]
activity against human tumor models ([3]; prostrate (PC-3) and glioblastoma (U-87)): demonstrated activity

SMILES: FC(F)c1nc2ccccc2n1-c1nc(N2CCOCC2)nc(N2CCOCC2)n1 [ZSTK474, 2-(2-difluoromethylbenzoimidazol-1-yl)-4,6-dimorpholino-1,3,5-triazine]
tumor growth inhibition ([3]; chronic oral administration, 400 mg/kg, A549, PC-3, WiDr): completely inhibited growth
IC50 [10]: > 10 µM
